The values below are quoted from earlier work in US7166468B2, “Production of the lantibiotic cinnamycin with genes isolated from Streptomyces cinnamoneus” (Plant Bioscience Limited, priority 2001, dated 2007).

The series relates to B. subtilis. As to conditions: stated as known activity.

Ends that are not written are not given here.

On to “cinnamycin (CRQSCSFGPFTFVCDGNTK; thioether (positions not given here); not fully specified (bridges); also: lanthionine bridges, positions not given here)”, for which the “Known activity of cinnamycin: inhibition of the growth of B. subtilis strains” value is listed as “inhibition of the growth of the B. subtilis strains”.
